Among the test systems are SF-539 CNS; OVCAR-4 ovarian; MDA-MB-231 breast; U251 CNS; SR leukemia; T-47D breast; HCT-116 colon; A549 NSCLC; NCI-H460 lung; K-562 leukemia; SF-268 CNS; MCF7 breast; M14 melanoma; ACHN renal; HL-60(TB) leukemia; SK-MEL-5 melanoma; NCI/ADR-RES ovarian; UACC-257 melanoma; OVCAR-8 ovarian.
Assay in all cases: inhibition of tumour cell growth, NCI panel, 48 h

The text below walks through data of PubChem BioAssay (NCI).

Molecules are shown by their SMILES.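 Method: 48-hour compound exposure of cells in 96-well plates, five concentrations, linear interpolation of endpoints. At the TGI there is no net growth.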

Regarding `Nc1c(F)c(F)c2c(c1F)N(CCCCCl)c1ccccc1S2`, the TGI with SF-539 CNS, with OVCAR-4 ovarian, in the experiment with MDA-MB-231 breast, in the experiment with U251 CNS, in the experiment on SR leukemia and in the experiment on T-47D breast was greater than 100 µM in each case. In addition, the TGI in the experiment on HCT-116 colon, in the experiment on A549 NSCLC, in the experiment with NCI-H460 lung, in the experiment with K-562 leukemia, in the experiment with SF-268 CNS and in the experiment with MCF7 breast was greater than 100 µM throughout. Also, the TGI in the experiment with M14 melanoma, in the experiment on ACHN renal, in the experiment with HL-60(TB) leukemia, in the experiment with SK-MEL-5 melanoma, with NCI/ADR-RES ovarian and in the experiment on UACC-257 melanoma was greater than 100 µM throughout.
Turning to `Cc1cn(CC(=S)NCCc2c[nH]c3ccccc23)c(=O)[nH]c1=O`, the TGI with SF-539 CNS, with OVCAR-4 ovarian, in the experiment with MDA-MB-231 breast, with U251 CNS, with SR leukemia and in the experiment with T-47D breast was greater than 100 µM each time. Further, the TGI in the experiment on HCT-116 colon, with A549 NSCLC, in the experiment with K-562 leukemia, with SF-268 CNS, in the experiment on MCF7 breast and with M14 melanoma was greater than 100 µM throughout. For the same molecule, the TGI in the experiment with ACHN renal, in the experiment with HL-60(TB) leukemia, in the experiment on SK-MEL-5 melanoma and with NCI/ADR-RES ovarian was greater than 100 µM throughout.
For `CCCCCN1C(=O)C(Cc2ccccc2)N=C(c2ccc(O)cc2)c2cc(Cl)ccc21` (configuration not stated), the TGI in the experiment on SF-539 CNS turned out to be 38.9 µM; with OVCAR-4 ovarian, 22.1 µM; with MDA-MB-231 breast it was 35.9 µM; in the experiment with U251 CNS, 27.2 µM; in the experiment on SR leukemia it was 15.3 µM; in the experiment on T-47D breast, 12.4 µM. Also, the TGI in the experiment with OVCAR-8 ovarian came to 25.8 µM; in the experiment on HCT-116 colon, 21.5 µM; with A549 NSCLC, 31.7 µM; in the experiment on NCI-H460 lung, 24.3 µM; with K-562 leukemia it was 12.3 µM; in the experiment with SF-268 CNS it was 25.3 µM. Moreover, the TGI in the experiment on MCF7 breast is 24.8 µM; in the experiment on M14 melanoma, 34.4 µM; with ACHN renal it was 25.9 µM; in the experiment with HL-60(TB) leukemia it was greater than 100 µM; in the experiment on NCI/ADR-RES ovarian, 25.4 µM; in the experiment on UACC-257 melanoma, 23.7 µM.
Take `COc1ccc(/C(C)=C2\CCCN(Cc3ccccc3)C2)cc1`: the TGI with SF-539 CNS is 35.2 µM; in the experiment with OVCAR-4 ovarian it was greater than 100 µM; in the experiment on MDA-MB-231 breast, 57.9 µM; in the experiment on U251 CNS, 40.3 µM; with SR leukemia it was 42.2 µM; with T-47D breast, 77 µM. Besides, the TGI stood at 35.9 µM with OVCAR-8 ovarian; 86 µM in the experiment on A549 NSCLC; 53.5 µM in the experiment with NCI-H460 lung; 63.4 µM with K-562 leukemia; 40.6 µM in the experiment on SF-268 CNS; 37.8 µM in the experiment with MCF7 breast. Further, the TGI with M14 melanoma was 36.7 µM; in the experiment with ACHN renal, 98.4 µM; in the experiment with HL-60(TB) leukemia, 47.5 µM; in the experiment on SK-MEL-5 melanoma it was 36.8 µM; in the experiment on NCI/ADR-RES ovarian, 57.5 µM; in the experiment with UACC-257 melanoma it was 86.4 µM.
Turning to `CC(=O)N1C(c2[nH]c3ccccc3c2Cc2ccccc2)CCN1c1ccccc1` (configuration not stated), the TGI in the experiment on SF-539 CNS, in the experiment with OVCAR-4 ovarian, with MDA-MB-231 breast, with SR leukemia, in the experiment with T-47D breast and with OVCAR-8 ovarian was greater than 10 µM throughout. The TGI in the experiment on HCT-116 colon, with A549 NSCLC, in the experiment with NCI-H460 lung, in the experiment on K-562 leukemia, in the experiment on SF-268 CNS and with MCF7 breast was greater than 10 µM throughout. The TGI in the experiment with M14 melanoma, with ACHN renal, in the experiment on HL-60(TB) leukemia, in the experiment on SK-MEL-5 melanoma, in the experiment on NCI/ADR-RES ovarian and with UACC-257 melanoma was greater than 10 µM each time.
For the molecule `CC(CC(=O)N1C2CC3CCC2(CS1(=O)=O)C3(C)C)[Si](C)(C)C` (configuration not stated), the TGI in the experiment with SF-539 CNS, with MDA-MB-231 breast, in the experiment with U251 CNS, in the experiment on SR leukemia, with T-47D breast and in the experiment with OVCAR-8 ovarian was greater than 100 µM each time. Also, the TGI with HCT-116 colon, in the experiment on A549 NSCLC, with NCI-H460 lung, in the experiment on K-562 leukemia, with SF-268 CNS and in the experiment with MCF7 breast was greater than 100 µM throughout. The TGI with M14 melanoma, with ACHN renal, with HL-60(TB) leukemia, with SK-MEL-5 melanoma, with NCI/ADR-RES ovarian and with UACC-257 melanoma was greater than 100 µM in each case.
For `Cc1cc2c(cc1Cl)SC(NNCCO)=NS2(=O)=O`, the TGI in the experiment with SF-539 CNS, in the experiment with OVCAR-4 ovarian, in the experiment with MDA-MB-231 breast, in the experiment with U251 CNS, in the experiment with SR leukemia and in the experiment with T-47D breast was greater than 100 µM each time. Further, the TGI in the experiment with OVCAR-8 ovarian, with HCT-116 colon, in the experiment with NCI-H460 lung, with K-562 leukemia, in the experiment on SF-268 CNS and in the experiment with MCF7 breast was greater than 100 µM in each case. For the same molecule, the TGI in the experiment with M14 melanoma, in the experiment on ACHN renal, with HL-60(TB) leukemia, in the experiment with SK-MEL-5 melanoma, with NCI/ADR-RES ovarian and in the experiment with UACC-257 melanoma was greater than 100 µM each time.
As to `Cn1c2ncccc2n2c(=O)cc(O)cc12`, the TGI in the experiment on SF-539 CNS was greater than 100 µM; in the experiment with OVCAR-4 ovarian, greater than 100 µM; with MDA-MB-231 breast, greater than 100 µM; in the experiment with U251 CNS it was greater than 100 µM; with SR leukemia, greater than 100 µM; in the experiment with T-47D breast, 95.7 µM. The TGI in the experiment on OVCAR-8 ovarian, in the experiment on HCT-116 colon, in the experiment with A549 NSCLC, in the experiment on NCI-H460 lung, in the experiment with K-562 leukemia and with SF-268 CNS was greater than 100 µM each time. Further, the TGI with MCF7 breast, in the experiment on M14 melanoma, with ACHN renal, in the experiment on SK-MEL-5 melanoma, in the experiment on NCI/ADR-RES ovarian and in the experiment on UACC-257 melanoma was greater than 100 µM in each case.
